Where two headings read alike, the source gives them in different places.
Target: T1, CA-IX (Homo sapiens, UniProt Q16790)
T1 construct: His tag (C); purchased R&D Systems Inc. 2188-CA; host or cells: mouse myeloma cell line NS0
Test: CA-IX combinatorial library screening, competitive fluorescence-based assay with dansylamide (DNSA)
Format: binding
Conditions: sample concentrations 100 nM and 1000 nM, DNSA 200 μM, screening at 1 μM; for inhibition at 1 µM: 1 h
Procedure: General. CA-IX human recombinant enzyme was expressed with a C-terminal His tag in a mouse myeloma cell line, NS0 (R&D Systems Inc., catalog number 2188-CA). The human red blood cells were obtained from Research Blood Components, LLC. All absorbance measurements were performed on a SPECTRA MAX M2 plate reader at 25° C. The LC/MS analyses were performed on an Agilent 1100 series LC/MSD (SL) using a 30×2.1 mm Zorbax C8 column with a Phenomenex C18 pre-column. Compound detection was accomplished by electrospray mass spectroscopy in positive selected ion mode (LC/MS-SIM). The elution solvents were acetonitrile and water, contained 0.05% TFA. Nuclear magnetic resonance (NMR) spectra were obtained on a Bruker AMX 300 MHz spectrometer or a Varian 400. 19F NMR spectra were recorded on a Bruker AMX 282.35 MHz or a Varian 400 spectrometer. The mass spectra were recorded on an Agilent 1100 series LC/MSD with electrospray mass spectroscopic detection. Flash column chromatography was performed on Merck silica gel (40-63 μm) using the solvent system indicated. The radiochemical and chemical purities were analyzed by RP-HPLC.
General Combinatorial Library Screening Protocol for CA-IX
The CA-IX screening assay was employed for testing libraries derived from the various “anchor” molecules, using ethoxzolamide as a positive control. The assay was performed at a substrate (dansylamide, DNSA) concentration of 200 μM, and sample concentrations of 100 nM and 1000 nM, respectively. A modified competitive fluorescence-based assay (A. Jain, S. G. Huang, G. M. Whitesides, J. Am. Chem. Soc. 1994, 116, 5057) was used to measure CA-IX activity. The enzymatic assay was carried out in a 96-well plate. To the wells, deionized water, 40 μL of phosphate buffer (250 mM, pH 7.4), 2.4 μL of CA-IX (17 μM), and 2 μL or 20 μL of inhibitor (concentration of 100 nM or 1000 nM) were added to achieve a final volume of 180 μL. Reactions were initiated by adding 20 μL DNSA (200 μM) to each well and the plate was incubated at 25° C. for 1 hour. The fluorescence intensities from each well of the plate were then read at 460 nm using a plate reader with an excitation wavelength of 290 nm.

[1] = Table 2, Libraries 4-7, read-out: In Vitro Binding Assay (Library (Screening))
[2] = Table 1, Libraries 1-3, read-out: In Vitro Binding Assay (Library Screening)

| inhibition at 1 µM [1] | SMILES | further results |
| --- | --- | --- |
| < 40% | CC(C)[C@@H](C(=O)NCCCO)n1cc(-c2ccc(S(N)(=O)=O)cc2)nn1 [DHK181] | – |
| < 40% | CC(C)[C@@H](C(=O)NC1CCCCC1)n1cc(-c2ccc(S(N)(=O)=O)cc2)nn1 [DHK179] | – |
| < 40% | CC(C)[C@@H](C(=O)NCC1COc2ccccc2O1)n1cc(-c2ccc(S(N)(=O)=O)cc2)nn1 (stereo partly shown) [DHK187] | – |
| < 40% | COC(=O)[C@H](C)NC(=O)[C@H](C(C)C)n1cc(-c2ccc(S(N)(=O)=O)cc2)nn1 [DHK177] | – |
| < 40% | CC(C)[C@@H](C(=O)N1CCN(c2ccccn2)CC1)n1cc(-c2ccc(S(N)(=O)=O)cc2)nn1 [DHK174] | – |
| < 40% | CC(C)[C@@H](C(=O)NCc1ccc(F)cc1)n1cc(-c2ccc(S(N)(=O)=O)cc2)nn1 [DHK165] | – |

The remaining lines, values behind:

| SMILES | inhibition at 1 µM [1] | further results |
| --- | --- | --- |
| NS(=O)(=O)c1ccc(-c2cn([C@@H](Cc3ccccc3)C(=O)NCCCO)nn2)cc1 [DHK-2-14] | < 40% | – |
| CC(C)[C@@H](C(=O)NCC1COc2ccccc2O1)n1cc(COc2ccc3nc(S(N)(=O)=O)sc3c2)nn1 (stereo partly shown) [DHK-2-44] | – | In Vitro Binding Assay (Library Screening) (Table 2, Libraries 4-7): √ |
| CCOC(=O)[C@@H](Cc1ccccc1)NC(=O)[C@H](Cc1ccccc1)n1cc(-c2ccc(S(N)(=O)=O)cc2)nn1 [DHK-2-8] | < 40% | – |
| NS(=O)(=O)c1ccc(-c2cn(Cc3cccc(Br)c3)nn2)cc1 [DHK18] | – | inhibition at 1 µM [2]: < 40% |
| CC1CCCN(C(=O)C(C(C)C)n2cc(COc3ccc4nc(S(N)(=O)=O)sc4c3)nn2)C1 (stereo not shown) [DHK119] | – | inhibition at 1 µM [2]: < 40% |
| CN(C)Cc1ccc(CSCCNC(=O)[C@H](Cc2ccccc2)n2cc(COc3ccc4nc(S(N)(=O)=O)sc4c3)nn2)o1 [DHK-2-54] | < 40% | – |
| CC(C)[C@@H](C(=O)NCCc1ccsc1)n1cc(CNC(=O)c2ccc(S(N)(=O)=O)cc2)nn1 [DHK91] | – | inhibition at 1 µM [2]: < 40% |
| CC(C)[C@@H](C(=O)NCc1ccc(F)cc1)n1cc(COc2ccc3nc(S(N)(=O)=O)sc3c2)nn1 [DHK-2-25] | < 40% | – |
| NS(=O)(=O)c1nc2ccc(OCc3cn([C@@H](Cc4ccccc4)C(=O)N4CCC(N5CCCC5)CC4)nn3)cc2s1 [DHK-2-72] | < 40% | – |
| NS(=O)(=O)c1nc2ccc(OCc3cn([C@@H](Cc4ccccc4)C(=O)N4CCN(CCO)CC4)nn3)cc2s1 [DHK-2-69] | < 40% | – |
| NS(=O)(=O)c1nc2ccc(OCc3cn([C@@H](Cc4ccccc4)C(=O)NCCCO)nn3)cc2s1 [DHK-2-65] | < 40% | – |
| NS(=O)(=O)c1ccc(-c2cn([C@@H](Cc3ccccc3)C(=O)NC3CCCCC3)nn2)cc1 [DHK-2-12] | < 40% | – |
| CC(C)[C@@H](C(=O)NCCN1CCN(Cc2ccccc2)CC1)n1cc(COc2ccc3nc(S(N)(=O)=O)sc3c2)nn1 [DHK-2-47] | < 40% | – |
| CCOC(=O)C(Cc1ccccc1)NC(=O)[C@H](Cc1ccccc1)n1cc(COc2ccc3nc(S(N)(=O)=O)sc3c2)nn1 (stereo partly shown) [DHK-2-59] | < 40% | – |
| CCOC(=O)C(Cc1ccccc1)NC(=O)[C@H](C(C)C)n1cc(COc2ccc3nc(S(N)(=O)=O)sc3c2)nn1 (stereo partly shown) [DHK-2-32] | < 40% | – |
| CCOC(=O)C(NC(=O)[C@H](C(C)C)n1cc(COc2ccc3nc(S(N)(=O)=O)sc3c2)nn1)C(C)C (stereo partly shown) [DHK-2-33] | < 40% | – |
| NS(=O)(=O)c1nc2ccc(OCc3cn([C@@H](Cc4ccccc4)C(=O)N4CCN(c5ccccn5)CC4)nn3)cc2s1 [DHK-2-58] | < 40% | – |
| CCOC(=O)CCN(Cc1ccco1)C(=O)[C@H](Cc1ccccc1)n1cc(COc2ccc3nc(S(N)(=O)=O)sc3c2)nn1 [DHK-2-67] | < 40% | – |
| NS(=O)(=O)c1ccc(-c2cn([C@@H](Cc3ccccc3)C(=O)N3CCC[C@@H]3CO)nn2)cc1 [DHK-2-6] | < 40% | – |
| NS(=O)(=O)c1ccc(C(=O)NCc2cn(CCn3c(=O)[nH]c4ccccc4c3=O)nn2)cc1 [DHK93] | – | inhibition at 1 µM [2]: < 40% |
| NS(=O)(=O)c1ccc(-c2cn(CC(=O)n3ncc4ccccc43)nn2)cc1 [DHK65] | – | inhibition at 1 µM [2]: < 40% |
| NS(=O)(=O)c1nc2ccc(OCc3cn([C@@H](Cc4ccccc4)C(=O)NCCN4CCN(Cc5ccccc5)CC4)nn3)cc2s1 [DHK-2-74] | < 40% | – |
